# Measurements as given in patent publication US11603568B2, “NOX2 as a biomarker of radiotherapy efficiency in cancer patients” (Institut Gustave-Roussy, priority 2016, dated 2023).
# B1: mIFN-γ: Recombinant murine IFN-γ from PeproTech, classical macrophage activator (protein, UniProt P01580 23-155, looked up)
# Interferon gamma: HGTVIESLESLNNYFNSSGIDVEEKSLFLDIWRNWQKDGDMKILQSQIISFYLRLFEVLKDNQAISNNISVIESHLITTFFSNSKAKKDAFMSIAKFEVNNPQVQRQAFNELIRVVHQLLPESSLRKRKRSRC
# B2: IFN-γ: Recombinant Human IFN-γ from R&D Systems, classical macrophage activator (protein, UniProt P01579 24-161, looked up)
# Interferon gamma: QDPYVKEAENLKKYFNAGHSDVADNGTLFLGILKNWKEESDRKIMQSQIVSFYFKLFKNFKDDQSIQKSVETIKEDMNVKFFNSNKKKRDDFEKLTNYSVTDLNVQRKAIHELIQVMAELSPAAKTGKRKRSQMLFRG
# How the values were obtained:
# Assay type in all cases: cell-based
# [1] = system: murine RAW264.7 macrophages; assay: Immunoblots of ATMS1981*, ATM, IRF5 and NOX2 expression in murine RAW264.7 macrophages; conditions: for ATM activation (ATMS1981*) by the agent / IRF5 expression induced by the agent: 24 hours, 10 μM CDDP, 200 ng/ml NCZ, 10 μM Olaparib (FIGS. 3E, 3H-3J)
# Description: (§1) The human monocyte cell line THP1 cells and the murine macrophage-like RAW264.7 cells were maintained in RMPI-1640-Glutamax medium (Life technology) supplemented with 10% heat-inactivated fetal bovine serum (Hycultec GmbH) and 100 UI/ml penicillin-streptomycin (Life technology). To obtain THP1 macrophages, THP1 monocytes were differentiated with 320 nM of PMA (Invivogen) during 24 h. Then, cells were washed three times to remove PMA and non-adherent cells. For the generation of monocytes-derived macrophages (hMDM), buffy coats from healthy donor blood were obtained from the French blood bank (Etablissement Français du Sang) under the control of convention with the INSERM. In accordance with French law, written informed consent for the use of cells for clinical research was obtained from each donor. Monocytes were obtained from buffy coats and were differentiated into macrophages by using human AB serum in macrophage medium, as previously described. […] All cells were maintained under 5% CO2 humidified atmosphere at 37° C. For hypoxic experiments, cells were incubated in the hypoxic hood (Scitive) under 1% 02, with 5% CO2 humidified atmosphere at 37° C. Dimethyl Sulfoxide (DMSO), Lipopolysaccharides (LPS), Dimethyloxalylglycine (DMOG), NAcetyl-L-cysteine (NAC), Diphenyleneiodonium chloride (DPI), Neocarzinostatin (NCZ), cis-Diammineplatinum(II) dichloride (CDDP) were purchased from Sigma-Aldrich. Recombinant murine IFN-γ (mIFN-γ) was obtained from PeproTech Recombinant Human IFN-γ was from R&D Systems. KU55933 was from Tocris Bioscience. Mn(III)tetrakis (4-benzoic acid) porphyrin Chloride (MnTBAP) was from Calbiochem. Olaparib was from Selleckchem. Phorbol 12-myristate 13-acetate (PMA) was from Invivogen.
# (§2) Human MDM (10^6) were activated by treatment with […] recombinant human IFN-γ for 24 h. THP1 monocytes were differentiated into macrophages by 320 nM PMA for 24 h. Then, macrophages were activated with 20 ng/ml recombinant human IFN-γ or 100 ng/ml LPS during 24 h. RAW264.7 macrophages were activated with 20 ng/ml recombinant murine IFN-γ or 100 ng/ml LPS for 24 h.
# (§3) Cells were seeded in 6-well plates, 12-well plates or 25 cm^2 flasks and irradiated with gamma-ray irradiator IBL-637 (Cs137, 1 Gy/min, gamma CIS-Bio International, IBA, Saclay, France) or with X-ray irradiator (1Gy/min, X-RAD 320, Precision X-Ray). Cells were harvested at indicated time points (hMDMs and THP1 macrophages at 96 h, RAW264.7 macrophages at 6 h) after irradiation for subsequent experiments.
# (§4) Cells were washed twice with cold PBS and lysed with NEHN buffer (0.5% NP40, 20% Glycerol, 300 mM NaCl, 20 mM Herps, pH 7.5, and 1 mM EDTA) complemented with 2.5 mM DTT and the protease and phosphatase inhibitor (Roche) at 4° C. 5-20 μg of proteins were separated by NuPAGE 4-12% or 10% SDS-PAGE gel (Invitrogen) and then were transferred onto a nitrocellulose membrane (0.2 Micron, Bio-Rad). Membranes were blocked with 5% nonfat milk or 5% Bovine Serum Albumine (BSA) in Tris-buffered saline and 0.1% Tween 20 (TBS-T) at room temperature for 1 h and then subsequently probed with primary antibodies (1/5000-1/1000) overnight at 4° C. Then, membranes were incubated with appropriate horseradish peroxidase-conjugated anti-rabbit or anti-mouse IgG (SouthernBiotech) for 1 h at room temperature.
# [2] = system: murine RAW264.7 macrophages; assay: Confocal immunofluorescence of DNA damage-associated nuclear foci; conditions: 24 h treatment; 20 ng/ml mIFN-γ, 100 ng/ml LPS or 10 μM CDDP (FIGS. 3A-3C)
# Description: Cells were grown on coverslips and were treated as indicated. After treatment, cells were rinsed twice, fixed with 10% neutral buffered formalin (Sigma-Aldrich) for 10 min and then permeabilized with 0.3% Triton X-100 in PBS for 15 min. Cells were then washed twice with PBS and were blocked with 10% FBS in PBS for 1 h at room temperature, followed by incubation with primary antibodies (1/100) in 10% FBS in PBS for 1 h30 min at room temperature. Then, samples were incubated with secondary antibodies using Alexa Fluor-488 green or Alexa Fluor-546 red (1/500, Life Technologies) and Hoechst 33342 for nuclei (1/1000, Thermo Fisher Scientific) in 10% FBS in PBS for 30 min at room temperature. Coverslips were mounted with Fluoromount-G (SouthernBiotech) ant then visualized with Leica TCS SPE confocal microscope (Leica Microsystemes, France).
# [3] = system: PMA-treated human THP1 monocytes; assay: Immunoblots of ATMS1981*, ATM, IRF5 and NOX2 expression in PMA-treated human THP1 monocytes; conditions: for ATM activation (ATMS1981*) by the agent / IRF5 expression induced by the agent: 24 hours, 20 ng/ml human IFN-γ, 100 ng/ml LPS, 10 μM CDDP (FIGS. 3D, 3F, 3G)
# Description: as §1, §2, §3, §4
# [4] = system: murine RAW264.7 macrophages; assay: Detection of ROS production (H2DCFDA staining, flow cytometry); conditions: for ROS production after IR or mIFN-γ in presence of the inhibitor: 2 Gy single dose or 20 ng/ml mIFN-γ, NAC 1 μg/ml, DPI 200 nM
# Description: Hydrogen peroxide and anion superoxide production were determined by staining cells with 5 μM of 2,7-dichlorodihydrofluorescein diacetate (H2DCFDA, Sigma) for 40 min at 37° C. Cells were then washed twice with Hanks' balanced salt solution (HBSS, from Thermo Fisher Scientific) and suspended in cold HBSS solution containing 1% FBS for FACS analysis.
# Considering that reactive oxygen species (ROS) have been involved in both ATM activation and macrophage differentiation, the role of ROS production during macrophage activation was investigated.
# [5] = system: macrophages; assay: Macrophage viability (LDH release); conditions: data not shown; cells and concentrations as in the activation experiments
# Source text: The release of LDH in the supernatants of cultured cells was detected using Cytotoxicity Detection KitPLUS (LDH) from Roche according to the manufacturers' instructions.
# [6] = system: hMDM; assay: Immunoblots of ATMS1981*, ATM, IRF5 and NOX2 expression in human monocyte-derived macrophages (hMDM)
# Description: as §1, with “Dimethyl Sulfoxide (DMSO), Lipopolysaccharides (LPS), Dimethyloxalylglycine (DMOG), NAcetyl-L-cysteine (NAC), Diphenyleneiodonium chloride (DPI), Neocarzinostatin (NCZ), cis-Diammineplatinum(II) dichloride (CDDP) were purchased from Sigma-Aldrich. Recombinant murine IFN-γ (mIFN-γ) was obtained from PeproTech Recombinant Human IFN-γ was from R&D Systems. KU55933 was from Tocris Bioscience. Mn(III)tetrakis (4-benzoic acid) porphyrin Chloride (MnTBAP) was from Calbiochem. Olaparib was from Selleckchem. Phorbol 12-myristate 13-acetate (PMA) was from Invivogen.” left out
# [7] = 10 μM MnTBAP, 8 Gy single dose, 48 hours (FIG. 4G)
# [8] = 10 μM Olaparib, 2 Gy, 6 hours (FIG. 2P)
# [9] = 1 μg/ml NAC, 2 Gy, 6 hours or 20 ng/ml mIFN-γ, 24 hours (FIGS. 4E, 4F)
molecule,measurement,setting,value
Neocarzinostatin,ATM activation (ATMS1981*) by the agent,[1]; 20 ng/ml mIFN-γ,activated ATM
same,IRF5 expression induced by the agent,[1]; 20 ng/ml mIFN-γ,increased IRF5 expression
"N.N.[Cl][Pt][Cl] [Cisplatin, cis-Diammineplatinum(II) dichloride]",ATMS1981*+ and γ-H2AX+ nuclear foci,[2],activated ATM
same,ATM activation (ATMS1981*) by the agent,[1]; 20 ng/ml mIFN-γ,activated ATM
same,IRF5 expression induced by the agent,[1]; 20 ng/ml mIFN-γ,increased IRF5 expression
same,ATM activation (ATMS1981*) by the agent,[3],activated ATM
same,IRF5 expression induced by the agent,[3],increased IRF5 expression
"O=C(O)c1ccc(C2=C3C=CC(=N3)C(c3ccc(C(=O)O)cc3)=c3ccc([nH]3)=C(c3ccc(C(=O)O)cc3)c3ccc([n-]3)C(c3ccc(C(=O)O)cc3)c3ccc2[n-]3)cc1.[Cl-].[Mn+3] (stereo not drawn) [MnTBAP, Mn(III)tetrakis (4-benzoic acid) porphyrin Chloride]",ROS production after IR or mIFN-γ in presence of the inhibitor,[4],blunted the ROS production
same,activating phosphorylation of ATM (ATMS1981*) after IR,[3]; [7],inhibited
same,increased expression of IRF5 after IR,[3]; [7],reduced
same,macrophage viability,[5],without impacting macrophage viability
O=C(c1cc(Cc2n[nH]c(=O)c3ccccc23)ccc1F)N1CCN(C(=O)C2CC2)CC1 [Olaparib],ATM activation after irradiation,[1]; [8],enhancement of ATM activation
same,IRF5 expression after irradiation (inflammatory macrophage activation elicited by IR),[1]; [8],increased expression of IRF5
same,ATM activation (ATMS1981*) by the agent,[1]; 20 ng/ml mIFN-γ,activated ATM
same,IRF5 expression induced by the agent,[1]; 20 ng/ml mIFN-γ,increased IRF5 expression
O=c1cc(-c2cccc3c2Sc2ccccc2S3)oc(N2CCOCC2)c1 [KU55933],γ-H2AX and ATMS1981* phosphorylations and the up-regulation of IRF5 expression after irradiation,"[6]; 10 μM KU55933, 4 Gy single dose, 96 hours (FIG. 2O)",impaired
same,γ-H2AX and ATMS1981* phosphorylations and the up-regulation of IRF5 expression after irradiation,"[1]; 20 μM KU55933, 2 Gy single dose, 6 hours (FIG. 2N)",impaired
same,macrophage viability,[5],without altering macrophage viability
"COC(=O)CNC(=O)C(=O)OC [DMOG, Dimethyloxalylglycine]",ATMS1981* and IRF5 expressions reduced after mIFN-γ stimulation,"[1]; 500 μM DMOG, 20 ng/ml mIFN-γ, 24 hours (FIG. 4K)",confirmed
same,IR-mediated ATMS1981* and IRF5 expressions,"[1]; 500 μM DMOG, 2 Gy single dose, 6 hours (FIG. 4I)",reduced
"CC(=O)N[C@@H](CS)C(=O)O [NAC, NAcetyl-L-cysteine]",ROS production after IR or mIFN-γ in presence of the inhibitor,[4],blunted the ROS production
same,activating phosphorylation of ATM (ATMS1981*) after IR or mIFN-γ,[1]; [9],inhibited
same,increased expression of IRF5 after IR or mIFN-γ,[1]; [9],reduced
same,macrophage viability,[5],without impacting macrophage viability
"c1ccc2c(c1)[I+]c1ccccc1-2 [DPI, Diphenyleneiodonium chloride]",ROS production after IR or mIFN-γ in presence of the inhibitor,[4],impaired
same,ATMPS1981* and IRF5 up-regulation after IR or mIFN-γ,"[1]; 200 nM DPI, 2 Gy, 6 hours or 20 ng/ml mIFN-γ, 24 hours (FIGS. 5L, 5M)",impaired
same,macrophage viability,[5],without modifying macrophage viability
B1,ATMS1981*+ and γ-H2AX+ nuclear foci,[2],accumulation of ATMS1981*+ and γ-H2AX+ foci
same,ROS production induced by the treatment,"[4]; 20 ng/ml mIFN-γ (FIGS. 4C, 4D)",induced ROS production
same,NOX2 up-regulated (immunoblot),"[1]; 20 ng/ml mIFN-γ, 24 hours (FIG. 5E)",confirmed
same,ATM activation (ATMS1981*) by the agent,[1]; 20 ng/ml mIFN-γ,activation of ATM
same,IRF5 expression induced by the agent,[1]; 20 ng/ml mIFN-γ,increased expression of IRF5
B2,NOX2 up-regulated (immunoblot),"[6]; 4 μg/ml hIFN-γ, 24 hours (FIG. 5B)",confirmed
same,NOX2 up-regulated (immunoblot),"[3]; 20 ng/ml hIFN-γ, 24 hours (FIG. 5C)",confirmed
same,ATM activation (ATMS1981*) by the agent,[3],activation of ATM
same,IRF5 expression induced by the agent,[3],increased expression of IRF5
